Reference: paper PMC6382862 (Scientific Reports, 2019)
Values joined by “and” are separate entries in the source; they are usually repeats but may differ in a detail not shown here. Equal entries are not always repeated. Blank lines part the entries; values can stand above or below the molecule they belong to.

Assays:
[1] = tested on: PCSK9; set-up: method as in PMID 28825733; settings: lower affinity than Pep2-8, still detectable by SPR; cited from earlier work
[2] = target: T1, PCSK9/LDLR PPI (His-tagged PCSK9, recombinant LDLR-AB domain) (Homo sapiens, UniProt Q8NBP7); assay: In vitro PCSK9-LDLR binding assay (CycLex); settings: peptide 100 µM; absorbance 450 nm; three independent experiments in duplicate
T1 construct: purchased CycLex Co., Nagano, Japan
T1 sequence (Q8NBP7 153-692): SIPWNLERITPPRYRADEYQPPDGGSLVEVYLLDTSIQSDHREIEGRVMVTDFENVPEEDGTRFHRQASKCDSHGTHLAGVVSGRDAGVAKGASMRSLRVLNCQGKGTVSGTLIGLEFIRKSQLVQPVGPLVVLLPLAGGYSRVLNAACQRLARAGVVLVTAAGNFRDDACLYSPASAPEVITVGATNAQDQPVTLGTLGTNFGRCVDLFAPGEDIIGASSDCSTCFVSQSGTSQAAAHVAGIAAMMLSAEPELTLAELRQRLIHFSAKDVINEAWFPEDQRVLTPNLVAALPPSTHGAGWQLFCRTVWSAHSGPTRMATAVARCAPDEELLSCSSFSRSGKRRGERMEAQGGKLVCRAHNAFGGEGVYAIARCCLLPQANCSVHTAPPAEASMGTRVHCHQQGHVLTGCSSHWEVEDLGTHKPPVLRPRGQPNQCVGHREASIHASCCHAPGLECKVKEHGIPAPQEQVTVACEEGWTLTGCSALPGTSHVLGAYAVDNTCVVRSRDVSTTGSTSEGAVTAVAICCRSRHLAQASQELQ
T1 sequence (Q8NBP7 31-152 partner limits assumed): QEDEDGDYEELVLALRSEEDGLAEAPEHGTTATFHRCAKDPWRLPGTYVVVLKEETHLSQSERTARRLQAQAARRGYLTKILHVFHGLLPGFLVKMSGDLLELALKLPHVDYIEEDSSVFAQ
Experimental: Biochemical experiments, based on a PCSK9-LDLR binding assay, were performed in order to compare the ability of each derivative to impair the PPI between PCSK9 and LDLR. […] Initially, in agreement with recently published conditions[27], a preliminary screening was performed at the fixed concentration of 100 µM.
The absorbance at 450 nm was measured using the Synergy H1 fluorescent plate reader (Biotek, Bad Friedrichshall, Germany).

[3] = tested on: LDLR protein level on HepG2 cell surface; assay: In cell western (ICW) assay of LDLR protein level on HepG2 cell surface in presence of PCSK9; format: cell-based, human; settings: PCSK9 alone decreased LDLR by 37.62%, mean of three independent experiments
Experimental: This reliable technique was used to investigate the effects of the mutated peptides on the modulation of the LDLR protein levels localized on the HepG2 cell surface. Taking this into consideration, to evaluate only the LDLR surface levels no permeabilization step was included in the applied procedure.
(§1) The HepG2 cell line was cultured in DMEM high glucose with stable L-glutamine supplemented with 10% FBS, 100 U/mL penicillin, 100.0 µg/mL streptomycin and incubated at 37 °C under 5% CO2 atmosphere. HepG2 cells were used for no more than 20 passages after thawing, because the increase of the number of passages may change the cell characteristics and impair assay results.
A total of 3.0 × 10^4 HepG2 cells/well were seeded in 96-well plates, respectively. The following day, cells were washed with PBS and then starved overnight (O/N) in DMEM without FBS.
Treated HepG2 cells were fixed in 4% paraformaldehyde for 20 min at room temperature (RT). Cells were washed 5 times with 100.0 µL of PBS/well (each wash was for 5 min at RT) and the endogenous peroxides activity was quenched adding 3% H2O2 in PBS for 20 min at RT. Non-specific sites were blocked with 100.0 µL/well of 5% BSA in PBS for 1.5 h at RT. LDLR primary antibody solution (1:3000 in 5% BSA in PBS, 25 µL/well) was incubated O/N at 4 °C. Subsequently, the primary antibody solution was discarded and each sample was washed 5 times with 100.0 µL/well of PBS (each wash was for 5 min at RT). Goat anti-rabbit Ig-HRP secondary antibody solution (1:6000 in 5% BSA in PBS, 50.0 µL/well) was added and incubated for 1 h at RT. The secondary antibody solution was washed 5 times with 100.0 µL/well of PBS (each wash for 5 min at RT). Freshly prepared TMB substrate (100.0 µL/well), was added and the plate was incubated at room temperature (RT) until desired color was developed. The reaction was then stopped with 2 M H2SO4 and the absorbance at 450 nm was measured using the Synergy H1 fluorescent plate reader from Biotek. Cells were stained by adding 1 × Janus green stain, incubating for 5 min at RT. The dye was removed and the sample washed 5 times with water. Afterward 0.1 mL 0.5 M HCl per well were added and incubated for 10 min. After 10 sec shaking, the OD at 595 nm was measured using the Synergy H1 fluorescent plate reader from Biotek.

[4] = tested on: HepG2 cells; assay: Fluorescent LDL uptake cell based assay in PCSK9-treated HepG2 cells; set-up: species or system human; settings: for Times more active than Pep2-8 in restoring LDL uptake: compared with 50 µM Pep2-8; for LDL-uptake restored (versus untreated cells): then LDL-DyLight 550 2 h, PCSK9 alone reduced uptake by 32.7%, mean of three independent experiments
Experimental: as §1
HepG2 cells (3.0 × 10^4/well) were seeded in black 96-well plates and kept in complete growth medium for 2 d before treatment. The third day, they were treated with 4.0 μg/mL PCSK9 and 4.0 μg/mL PCSK9 + peptides (0.5-50.0 µM), and vehicle (H2O) for 2 h with at 37 °C under 5% CO2 atmosphere. At the end of the treatments, the culture medium was replaced with 50.0 μl/well LDL-DyLight™ 550 working solution (Cayman Chemical Company, Ann Arbor, MI, US). The cells were additionally incubated for 2 h at 37 °C and then the culture medium was aspirated and replaced with PBS (100.0 μl/well). The degree of LDL uptake was measured using the Synergy H1 fluorescent plate reader from Biotek (excitation and emission wavelengths 540 and 570 nm, respectively).

[5] = tested on: cell surface LDLR, HepG2 cells; settings: cited from earlier work
Experimental: It is useful to underline, that in our case the cells were treated with a lower PCSK9 concentration (4 μg/mL) and for a shorter time (2 h) in respect to the conditions applied by Zhang and co-w ... || In a recent study, Zhang and co-workers[18] have developed new antagonists. […] In particular, in presence of PCSK9, Fusion 1 peptid ...

[6] = tested on: PCSK9/LDLR PPI; settings: read-out: IC50 of PCSK9/LDLR PPI inhibition; cited from earlier work
Text: Recently, innovative technological solutions for controlling peptide metabolism and advanced administration strategies[14]–[16] have renewed the interest for novel inhibitory peptides. […] Another study, carried out by us, has identified two peptides able to inhibit the PCSK9/LDLR PPI[11]: they derive from the hydrolysis of lupin protein and have the following sequences, […] (P5) and […] (T9).

[7] = target: T2, recombinant His-tagged PCSK9 protein (proprotein convertase subtilisin/kexin type 9) (UniProt Q8NBP7 31-692); assay: ELISA; CycLex in vitro PCSK9-LDLR binding assay (colorimetric semi-quantitative solid phase binding assay); wells coated with recombinant LDLR-AB domain; His-tagged PCSK9 added with peptide (1.0-300.0 uM; first screen at 100 uM); bound His-tagged PCSK9 read as absorbance at 450 nm; competition; settings: both partners purified
T2 construct: Proprotein convertase subtilisin/kexin type 9 (PCSK9), recombinant, of the CycLex kit; the functional rows use this molecule; also called PCSK9-WT
T2 sequence (Q8NBP7 31-692): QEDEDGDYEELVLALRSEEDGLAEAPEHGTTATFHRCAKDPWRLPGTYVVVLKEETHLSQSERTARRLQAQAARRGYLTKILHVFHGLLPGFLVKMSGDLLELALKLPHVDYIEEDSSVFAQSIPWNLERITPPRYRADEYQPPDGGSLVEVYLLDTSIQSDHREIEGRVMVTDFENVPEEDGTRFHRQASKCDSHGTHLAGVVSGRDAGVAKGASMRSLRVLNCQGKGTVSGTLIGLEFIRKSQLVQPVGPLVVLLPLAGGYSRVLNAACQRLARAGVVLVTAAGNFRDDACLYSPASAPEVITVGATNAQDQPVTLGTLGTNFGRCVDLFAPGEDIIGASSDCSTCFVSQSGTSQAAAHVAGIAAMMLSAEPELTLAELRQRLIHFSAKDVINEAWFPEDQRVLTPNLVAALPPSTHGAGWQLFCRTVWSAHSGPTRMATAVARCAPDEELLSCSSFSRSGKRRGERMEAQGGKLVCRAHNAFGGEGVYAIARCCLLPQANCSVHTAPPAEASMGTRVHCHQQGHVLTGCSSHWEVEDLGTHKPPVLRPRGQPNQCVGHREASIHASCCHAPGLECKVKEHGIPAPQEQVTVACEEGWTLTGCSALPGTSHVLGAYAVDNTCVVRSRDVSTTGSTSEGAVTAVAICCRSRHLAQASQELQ

[8] = peptide 0.5 µM + 4 µg/mL PCSK9, 2 h
[9] = peptide 1 µM + 4 µg/mL PCSK9, 2 h
[10] = peptide 0.5 µM + 4.0 µg/mL PCSK9, 2 h
[11] = peptide 1.0 µM + 4.0 µg/mL PCSK9, 2 h

Molecule: Ac-TAFTSWEEYLDWV-NH2 [[V2A]Pep2-8, alanine single-point mutant of Pep2-8, computational only]
Affinity on PCSK9 [1]: low affinity

Impairment of PCSK9-LDLR binding versus control [2]: −93.0%
Molecule: Ac-TVFRSWEEYLDYV-NH2 [[T4R,W12Y]Pep2-8]
LDLR protein level restored (versus control cells) [3, 8]: 68.1% | LDLR protein level restored (versus control cells) [3, 9]: 75.3% | LDLR protein level restored (versus control cells) ([3]; peptide 10.0 µM + 4 µg/mL PCSK9, 2 h): 88.3% | Times more active than Pep2-8 in restoring LDL uptake [4]: ~5 fold | LDL-uptake restored (versus untreated cells) [4, 10]: 81.6% | LDL-uptake restored (versus untreated cells) [4, 11]: 88.0% | LDL-uptake restored (versus untreated cells) ([4]; peptide 10.0 µM + 4.0 µg/mL PCSK9, 2 h): 92.5%

Impairment of PCSK9-LDLR binding versus control [2]: −69.8%
Molecule: Ac-TVFTSWEEALDWV-NH2 [[Y9A]Pep2-8]
LDLR protein level restored (versus control cells) [3, 8]: 81.9% | LDLR protein level restored (versus control cells) [3, 9]: 89.9% | Times more active than Pep2-8 in restoring LDL uptake [4]: about 50 fold | LDL-uptake restored (versus untreated cells) [4, 10]: 83.4% | LDL-uptake restored (versus untreated cells) [4, 11]: 99.0%

Molecule: Ac-TVFTSWEEYLDWV-NH 2 [Pep2-8, reference compound]
LDLR protein level restored (versus control cells) ([3]; peptide 50 µM + 4 µg/mL PCSK9, 2 h): 83.36% and 83.4% | LDL-uptake restored (versus untreated cells) ([4]; peptide 50 µM + 4.0 µg/mL PCSK9, 2 h): 98.9% | Surface LDLR levels renewed ([5]; FACS, 50 μM peptide, 4 h co-incubation with 15 μg/mL PCSK9, ref Zhang and co-workers): about 70%

Molecule: LILPKHSDAD [Peptide P5]
IC50 [6]: 1.6 µM

Molecule: TVFTSWEEYLDWV-GSC- CRLPWNLQRIGLPG [Fusion 1 peptide]
LDLR restored in presence of PCSK9 ([5]; HepG2 cells, 5.0 µM (tested 0.1 to 5.0 µM)): 90% | Fold more potent than reference peptide Pep2-8 in preventing PCSK9-mediated cell surface LDLR degradation ([5]; HepG2 cells): about 20 fold

IC50 [7]: 14.5 µM | percent change of PCSK9-LDLR binding at 100 µM peptide versus the control [7]: -93%
B1: [T4R,W12Y]Pep2-8 (Ac-TVFRSWEEYLDYV-NH2) (peptide)
peptide: Ac-TVFRSWEEYLDYV-NH2
notes: analog of Pep2-8 with T4R and W12Y, designed by computation; source: synthetic peptide (bought: PRIMM Biotech / GenScript, >95% purity)

IC50 [7]: 27.1 µM | percent change of PCSK9-LDLR binding at 100 µM peptide versus the control [7]: -69.8%
B2: [Y9A]Pep2-8 (Ac-TVFTSWEEALDWV-NH2) (peptide)
peptide: Ac-TVFTSWEEALDWV-NH2
notes: analog of Pep2-8 with Y9A, designed by computation; source: synthetic peptide (bought: PRIMM Biotech / GenScript, >95% purity)
